{"source": "patent US12544393B2", "about": "“Apoptosis-mimicking structures for inducing tissue regeneration” (THE REGENTS OF THE UNIVERSITY OF MICHIGAN, priority 2017, dated 2026)", "test_system": "bone marrow stromal cells (BMSCs)", "assay": "Transwell migration assay of BMSCs", "format": "cell-based, mouse", "protocol": "The macrophage culture, co-cultures with apoptosis mimicking structures, and co-cultures with the control microspheres were also used in transwell assays to determine in vitro bone marrow stromal cell migration. Bone marrow stromal cells (BMSCs) were derived from bone marrow flush, and were cultured in α-MEM medium (20% FBS, Pen/Strep, glutamine) for one time (passage) after isolation.\nCell migration was assessed in 24-well plate transwells (Corning, Inc.) with a diameter of 6.5 mm and a pore size of 8 μm coated with 0.2 mg/mL collagen type I (EMD Millipore). BMSCs were placed in the upper chambers. Conditioned media from the macrophage culture, the co-cultures, or α-MEM medium (a negative control) containing CCL-2 protein and 0.2% FBS were added to the lower chambers. After 8 hours, cells were fixed with 2.5% glutaraldehyde for 15 minutes. Cells which remained on top of transwell membranes were removed with cotton swabs. Cells that had migrated through the pores to the lower surface were stained with Gill's Hematoxylin (Sigma-Aldrich). Four fields at 200× magnification were selected at random, photo micrographic images were obtained (shown in FIG. 15C), and the cells in each image were counted (results shown in FIG. 15D).\nDifferent concentrations of recombinant CCL-2 were also examined for increasing BMSC migration."}
{"substance": "CCL-2: recombinant C-C motif chemokine ligand 2 protein", "values": [{"measurement": "increase of BMSCs migration compared with the control medium", "setting": "concentration of 10 ng/ml", "result": "about 70%"}, {"measurement": "further increase in BMSCs migration", "setting": "concentration up to 100 ng/ml", "result": "did not cause further increase"}]}
